Results taken from the supplement of paper PMC10307832.

Key:
Assay in all cases: relative viability (nuclei count vs DMSO), 5 days (fraction); higher = more cells survive
[1] = compound: CC[C@H](CO)Nc1nc(NCc2ccccc2)c2ncn(C(C)C)c2n1 [Seliciclib] + CCNC(=O)c1noc(-c2cc(C(C)C)c(O)cc2O)c1-c1ccc(CN2CCOCC2)cc1 [Luminespib] (partner 0.01 µM)
In short: (§1)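 Values are medians from duplicate plates. Each reflects relative viability, defined as the nuclei count of treated wells over that of vehicle wells. Lung cancer cell lines in 1536-well plates were pin-tool dosed one day after seeding with one drug alone or with a fixed anchor-drug dose plus five library-drug doses (not always all listed) in √10 steps, then fixed, stained and imaged at 4× after 5 days.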

[2] = compound: CC[C@H](CO)Nc1nc(NCc2ccccc2)c2ncn(C(C)C)c2n1 [Seliciclib] + COc1cccc2cc(-c3nc([C@H]4CC[C@H](C(=O)O)CC4)n4ncnc(N)c34)[nH]c12 [OSI-027] (partner 0.5 µM)
In short: as §1

[3] = compound: CC[C@H](CO)Nc1nc(NCc2ccccc2)c2ncn(C(C)C)c2n1 [Seliciclib] + CS(=O)(=O)CCNCc1ccc(-c2ccc3ncnc(Nc4ccc(OCc5cccc(F)c5)c(Cl)c4)c3c2)o1 [Lapatinib] (partner 2 µM)
In short: as §1

[4] = compound: CC[C@H](CO)Nc1nc(NCc2ccccc2)c2ncn(C(C)C)c2n1 [Seliciclib] + C[C@]1(O)C[C@@H](c2nc(-c3ccc4ccc(-c5ccccc5)nc4c3)c3c(N)nccn32)C1 [Linsitinib] (partner 1 µM)
In short: as §1

Cell Line	relative viability ([1]; first compound 0.08 µM)	relative viability ([1]; first compound 0.253 µM)	relative viability ([1]; first compound 0.8 µM)	relative viability ([1]; first compound 2.53 µM)	relative viability ([1]; first compound 8 µM)	relative viability ([2]; first compound 0.08 µM)	relative viability ([2]; first compound 0.253 µM)	relative viability ([2]; first compound 0.8 µM)	relative viability ([2]; first compound 2.53 µM)	relative viability ([2]; first compound 8 µM)	relative viability ([3]; first compound 0.08 µM)	relative viability ([3]; first compound 0.253 µM)	relative viability ([3]; first compound 0.8 µM)	relative viability ([3]; first compound 2.53 µM)	relative viability ([3]; first compound 8 µM)	relative viability ([4]; first compound 0.08 µM)	relative viability ([4]; first compound 0.253 µM)	relative viability ([4]; first compound 0.8 µM)	relative viability ([4]; first compound 2.53 µM)	relative viability ([4]; first compound 8 µM)
NCI-H1793	0.216	0.158	0.147	0.307	0.14	0.299	0.219	0.252	0.194	0.238	0.888	0.54	0.583	0.77	0.655	0.784	0.545	0.79	1.16	0.743
SK-LU-1	0.204	0.209	0.207	0.187	0.21	0.38	0.378	0.433	0.239	0.233	0.847	0.971	0.812	0.775	0.666	0.973	0.868	1.32	1.09	0.687
BEN	0.344	0.439	0.662	0.259	0.251	0.295	0.287	0.343	0.309	0.276	0.826	0.525	0.772	0.677	0.629	1.16	–	0.852	1.07	0.786
LC-2-ad	0.895	1.02	0.988	0.985	0.834	0.902	0.901	0.827	0.453	0.799	0.948	1.15	0.895	0.829	0.857	0.884	0.94	0.756	0.827	0.607
COR-L23	0.658	0.67	0.579	0.871	0.556	0.808	0.604	0.7	0.671	0.627	0.921	1.14	0.929	1.12	0.87	0.873	0.84	0.922	1.11	0.684
RERF-LC-KJ	1.29	1.07	1.21	1.28	0.859	0.58	0.582	0.555	0.407	0.508	0.852	0.783	0.913	0.928	0.788	0.869	0.814	0.855	0.909	0.883
SK-MES-1	0.814	0.854	0.733	1.1	0.601	0.63	0.655	0.593	0.462	0.45	0.476	0.397	0.404	0.489	0.446	1.02	0.995	1.04	1.05	0.981
NCI-H1915	0.756	0.765	0.785	0.853	0.653	0.643	0.636	0.495	0.536	0.423	0.951	1.13	1.02	0.936	0.853	1.11	1.14	1.14	1.12	0.885
NCI-H596	0.802	–	1	0.84	0.745	0.784	–	0.607	0.812	0.657	0.969	0.831	1.1	1.21	0.939	1.09	0.636	0.996	1.12	1.1
NCI-H2009	0.998	1.13	1.07	1.01	0.943	0.704	0.778	0.739	0.407	0.495	0.944	1.04	0.889	0.772	0.721	1.24	1.16	1.09	1.19	1.19
NCI-H2126	0.906	0.733	0.89	0.642	0.781	0.75	0.715	0.649	0.354	0.515	0.698	0.656	0.737	0.552	0.613	0.718	0.711	0.698	0.721	0.716
LXF-289	0.603	0.778	0.545	0.642	0.56	0.781	0.667	0.769	0.421	0.762	0.908	1.04	0.806	0.891	0.791	0.945	1.03	0.908	0.947	0.914
NCI-H1563	0.479	0.518	0.526	0.49	0.453	0.766	0.709	0.725	0.747	0.792	1.03	0.842	0.957	0.851	0.845	1.15	0.925	1.11	1.21	1.12
HCC-44	0.913	1.07	1.01	0.997	0.726	0.488	0.451	0.508	0.302	0.508	0.972	1.08	0.981	0.933	0.925	0.64	0.626	0.633	0.697	0.649
NCI-H358	0.31	0.385	0.21	–	0.186	0.79	0.501	0.652	0.58	0.448	0.429	0.5	0.407	0.305	0.253	0.613	0.634	0.617	0.609	0.445
PC-14	0.179	–	0.114	0.135	0.203	0.844	0.736	0.749	0.494	0.709	0.306	0.262	0.315	0.309	0.263	0.922	0.921	0.936	0.994	0.845
HOP-62	0.863	0.933	0.919	1	0.851	0.891	0.705	0.952	0.57	0.777	0.937	0.931	1.04	1.06	0.864	1.04	0.935	0.891	0.834	0.879
NCI-H1944	0.69	0.716	0.613	0.791	0.549	0.442	0.343	0.376	0.26	0.341	0.842	0.788	0.859	0.619	0.449	1.08	1.19	1.09	1.17	0.904
NCI-H1666	1.01	1.08	1.04	0.968	0.778	0.817	0.899	0.939	0.622	0.734	0.722	0.8	0.48	0.474	0.476	0.769	0.862	0.662	0.875	0.514
NCI-H1355	0.722	0.638	0.643	0.713	0.684	0.462	0.303	0.372	0.288	0.39	0.961	0.834	0.94	0.927	0.929	0.788	0.73	0.792	0.892	0.812
HCC-827	0.519	0.589	0.55	0.829	0.588	0.844	0.612	0.757	0.801	0.794	0.208	0.246	0.203	0.225	0.188	0.927	1	0.892	0.919	0.845
HARA	0.727	0.764	0.65	1.12	0.581	0.496	0.22	0.378	0.377	0.325	0.798	0.614	0.781	0.374	0.701	0.978	1.02	0.943	1.1	1.01
NCI-H322M	0.855	0.883	0.794	0.786	0.809	0.561	0.482	0.516	0.348	0.43	0.67	0.641	0.509	0.443	0.457	1.02	0.932	1.05	0.977	0.803
NCI-H2347	0.428	0.328	0.512	0.412	0.721	0.431	0.475	0.452	0.339	0.343	0.867	0.858	0.835	0.974	0.905	1.05	0.995	0.849	1	0.922
NCI-H1975	0.2	0.124	0.19	0.198	0.479	0.845	0.545	0.839	0.525	0.624	0.867	0.834	0.868	0.759	0.716	1.03	0.865	0.975	0.819	0.6
UMC-11	0.963	0.78	1.09	1.06	0.829	0.537	0.503	0.48	0.153	0.422	1.02	0.981	1.09	0.96	0.824	1.02	0.872	1.01	1.04	0.851
ABC-1	0.447	0.753	0.478	0.378	0.396	0.611	0.378	0.431	0.32	0.387	1.18	1.06	1.19	1.17	0.894	0.919	0.806	0.918	0.957	1.04
